Laboratory results as given in patent publication US20230210819A1, “USE OF BENZISOSELAZOLE DERIVATIVE FOR ANTI-CORONAVIRUS AND CONTROL OF INTERSTITIAL LUNG DISEASE (ILD) RELATED TO CORONAVIRUS” (SHANGHAI YUANXI MEDICINE CORP., priority 2020, published 2023).

What was measured:
Type in all cases: in vivo, C57 mice
[1] = Body weight, bleomycin-induced mice, 24-h modeling; conditions: for Body weight decreased by: day 1 to day 35
Protocol: Animals of 24-h modeling were randomly divided into 5 groups according to the table below, 3 animals per control group and 5 animals per test group.
(§1) Drug administration began 24 h or 7 d after modeling. […] The day of the first administration was counted as D1, the next day as D2, and so forth. The normal groups and Model groups were given 200 µL of normal saline daily by gavage administration.
All the animals were observed once daily during the experiment for death or dying, feces, ingestion, mental state and behavior and activity. Abnormalities were recorded in time. All the animals were weighed once before grouping and once before each dose.
In this experiment, 105 C57 mice were randomly selected and subjected to organ drip administration of a single dose of bleomycin at 2.5 mg/kg for 24 h or 7 d for induction. After 7 days of induction, 3 model mice were randomly selected and dissected to determine whether the modeling was successful. After modeling, the survival of the mice was recorded. The living states of the mice were observed and their body weight was measured at a fixed time.
A normal control group comprised 3 mice.

[2] = test system: bleomycin-induced mouse lung disease model; experiment: Blood gas analysis, 7-d modeling; conditions: for BEect / HCO3^- / PCO2: arterial blood after administration ended
Protocol: (§2) Animals of 7-d modeling were randomly divided into 7 groups according to the table below, 6 animals per control group and 12 animals per test group.
as §1
1. After being anaesthetized, a mouse was fixed to a board in a supine position.
2. After the skin was disinfected with alcohol, a midline cut of about 1.5 cm was made downward in the skin of the neck. The connective tissue between the sternohyoid muscle and the stemothyroid muscle was separated along the anterior border of the sternomastoid muscle with a tissue forceps. The pulsating common carotid artery could be seen on the deep right side of the trachea. A common carotid artery of about 1.5 cm in length was separated. The distal end was ligated with silk thread, and the proximal end was clipped with an artery clip and threaded with a silk thread for later use. The mouse board was placed under a dissecting microscope, and a V-shaped centripetal incision was gently made in a site near the distal end of the artery with a microscopy scissor. A PE microcatheter was inserted into the artery and fixed by making a knot with silk thread. The artery clip was removed, and 0.1-0.2 mL of blood was collected with a 1 mL syringe. The proximal end was clipped with an artery clip, and the syringe was removed. The blood was immediately analyzed on an AbboTTi-STAT blood gas microanalyzer.
In a blood gas analysis, the H^+ concentration in the blood and gases (mainly CO2 and O2) dissolved in the blood can be determined to directly reflect the function of pulmonary ventilation and the acid-base balance state. They are used to determine in the organism whether the acid-base balance is upset, whether anoxia occurred, the level of anoxia, and so forth.

[3] = test system: cytokines in bronchoalveolar lavage fluid; experiment: Inflammatory factor assay of bronchoalveolar lavage fluid by ELISA; conditions: for Percent reduction in IFN-γ in bronchoalveolar lavage fluid with respect to the Model group / Percent reduction in PPAR-y in bronchoalveolar lavage fluid with respect to the Model group: negative = increase; for IL-1β in bronchoalveolar lavage fluid / IL-2 in bronchoalveolar lavage fluid / IL-6 in bronchoalveolar lavage fluid / TNF-α in bronchoalveolar lavage fluid: second half of table, head taken from the 24th table
Protocol: as §2, §1
After the mouse was fixed, its trachea and chest cavity were exposed, and the trachea and the esophagus were bluntly separated with an ophthalmic curved forceps. Two sutures were made between the trachea and the esophagus. An intravenous trocar was inserted into the trachea and ligated at the site where it entered the trachea and at its distal end. A 1 mL syringe was connected to draw in 1 mL of pre-cooled PBS and infuse it into the lung tissue. Significant filling in the lung could be seen with the naked eye. The infusion was stopped for 10 s and withdrawal was performed. The infusion/withdrawal cycle was repeated 3 times. The withdrawn BALF was transferred to a clean EP tube and centrifuged at 4° C., and the supernatant was collected and preserved at -80° C. The bronchoalveolar lavage fluid was assayed for inflammatory factors by ELISA.

[4] = Dex 1-1.5 mg/kg i.p. every two days

## O=c1c2ccccc2[se]n1CCCCn1[se]c2ccccc2c1=O [BS, 1,4-[bis(1,2-benzisoselenazol-3(2H)-one)]butane]
[1]; BS 90 mg/kg gavage daily, D1
  Body weight: 20.34 ± 1.01 g
[1]; BS 90 mg/kg gavage daily, D7
  Body weight: 19.50 ± 1.35 g
[1]; BS 90 mg/kg gavage daily, D14
  Body weight: 18.84 ± 1.70 g
[1]; BS 90 mg/kg gavage daily, D21
  Body weight: 18.52 ± 1.75 g
[1]; BS 90 mg/kg gavage daily, D28
  Body weight: 18.30 ± 1.60 g
[1]; BS 90 mg/kg gavage daily, D35
  Body weight: 18.02 ± 1.75 g
[1]; BS 90 mg/kg gavage daily
  Body weight decreased by: 13.58%
[2]; BS 90 mg/kg and 180 mg/kg, better than Dex (1-1.5 mg/kg) in general
  Effect on blood gas analysis (in words): significant improvements to the function of pulmonary ventilation and the acid-base balance states
[2]; BSH: BS 180 mg/kg gavage daily
  BEect: -8.00 ± 1.10 mmol/L
  HCO3^-: 27.82 ± 0.91 mmol/L
  PCO2: 32.82±2.02 mmHg
[2]; BSL: BS 36 mg/kg gavage daily
  BEect: -15.67 ± 4.13 mmol/L
  HCO3^-: 22.30 ± 1.51 mmol/L
  PCO2: 27.45±1.35 mmHg
[2]; BSM: BS 90 mg/kg gavage daily
  BEect: -9.83 ± 0.75 mmol/L
  HCO3^-: 30.57 ± 1.42 mmol/L
  PCO2: 31.62±1.34 mmHg
[3]; BSH: BS 180 mg/kg gavage daily
  IFN-γ in bronchoalveolar lavage fluid: 55.70 ± 4.27 pg/mL
  NF-κB in bronchoalveolar lavage fluid: 759.34 ± 104.53 pg/mL
  PPAR-γ in bronchoalveolar lavage fluid: 237.75 ± 24.92 pg/mL
  Percent reduction in IL-1β in bronchoalveolar lavage fluid with respect to the Model group: 61.70%
  Percent reduction in IL-2 in bronchoalveolar lavage fluid with respect to the Model group: 10.87%
  Percent reduction in IL-6 in bronchoalveolar lavage fluid with respect to the Model group: 67.10%
  Percent reduction in NF-κB in bronchoalveolar lavage fluid with respect to the Model group: 17.22%
  Percent reduction in TGF-β in bronchoalveolar lavage fluid with respect to the Model group: 14.53%
  Percent reduction in TNF-α in bronchoalveolar lavage fluid with respect to the Model group: 22.95%
  TGF-β in bronchoalveolar lavage fluid: 161.82 ± 20.96 pg/mL
  Percent reduction in IFN-γ in bronchoalveolar lavage fluid with respect to the Model group: -67.81%
  Percent reduction in PPAR-y in bronchoalveolar lavage fluid with respect to the Model group: -9.52%
  IL-1β in bronchoalveolar lavage fluid: 4.78 ± 0.69 pg/mL
  IL-2 in bronchoalveolar lavage fluid: 40.37 ± 5.25 pg/mL
  IL-6 in bronchoalveolar lavage fluid: 9.47 ± 1.96 pg/mL
  TNF-α in bronchoalveolar lavage fluid: 43.24 ± 7.14 pg/mL
[3]; BSH: BS 180 mg/kg, used alone
  Inhibitory effect on inflammatory cells and proinflammatory factors (NF-κB, TNF-α, IL-1β, IL-2, IL-6) compared to Dex, in words: greater inhibitory effect
[3]; BSL: BS 36 mg/kg gavage daily
  IFN-γ in bronchoalveolar lavage fluid: 38.74 ± 4.74 pg/mL
  NF-κB in bronchoalveolar lavage fluid: 867.20 ± 174.12 pg/mL
  PPAR-γ in bronchoalveolar lavage fluid: 38.74 ± 4.74 pg/mL
  Percent reduction in IL-1β in bronchoalveolar lavage fluid with respect to the Model group: 17.88%
  Percent reduction in IL-2 in bronchoalveolar lavage fluid with respect to the Model group: 4.03%
  Percent reduction in IL-6 in bronchoalveolar lavage fluid with respect to the Model group: 49.92%
  Percent reduction in NF-κB in bronchoalveolar lavage fluid with respect to the Model group: 5.46%
  Percent reduction in TGF-β in bronchoalveolar lavage fluid with respect to the Model group: 0.42%
  Percent reduction in TNF-α in bronchoalveolar lavage fluid with respect to the Model group: 7.38%
  TGF-β in bronchoalveolar lavage fluid: 188.54 ± 24.55 pg/mL
  Percent reduction in IFN-γ in bronchoalveolar lavage fluid with respect to the Model group: -16.73%
  Percent reduction in PPAR-y in bronchoalveolar lavage fluid with respect to the Model group: -5.79%
  IL-1β in bronchoalveolar lavage fluid: 10.26 ± 1.29 pg/mL
  IL-2 in bronchoalveolar lavage fluid: 43.46 ± 7.51 pg/mL
  IL-6 in bronchoalveolar lavage fluid: 14.41 ± 1.33 pg/mL
  TNF-α in bronchoalveolar lavage fluid: 51.98 ± 4.37 pg/mL
[3]; BSM: BS 90 mg/kg gavage daily
  IFN-γ in bronchoalveolar lavage fluid: 53.31 ± 5.29 pg/mL
  NF-κB in bronchoalveolar lavage fluid: 824.16 ± 155.14 pg/mL
  Percent reduction in IL-1β in bronchoalveolar lavage fluid with respect to the Model group: 47.93%
  Percent reduction in IL-2 in bronchoalveolar lavage fluid with respect to the Model group: 9.81%
  Percent reduction in IL-6 in bronchoalveolar lavage fluid with respect to the Model group: 54.37%
  Percent reduction in NF-κB in bronchoalveolar lavage fluid with respect to the Model group: 10.15%
  Percent reduction in TGF-β in bronchoalveolar lavage fluid with respect to the Model group: 2.87%
  Percent reduction in TNF-α in bronchoalveolar lavage fluid with respect to the Model group: 11.68%
  TGF-β in bronchoalveolar lavage fluid: 178.54 ± 14.64 pg/mL
  Percent reduction in IFN-γ in bronchoalveolar lavage fluid with respect to the Model group: -60.63%
  Percent reduction in PPAR-y in bronchoalveolar lavage fluid with respect to the Model group: -6.09%
  IL-1β in bronchoalveolar lavage fluid: 6.50 ± 1.38 pg/mL
  IL-2 in bronchoalveolar lavage fluid: 40.84 ± 3.88 pg/mL
  IL-6 in bronchoalveolar lavage fluid: 13.13 ± 1.03 pg/mL
  TNF-α in bronchoalveolar lavage fluid: 49.57 ± 5.97 pg/mL

## C[C@@H]1C[C@H]2[C@@H]3CCC4=CC(=O)C=C[C@]4(C)[C@@]3(F)[C@@H](O)C[C@]2(C)[C@@]1(O)C(=O)CO [Dex, dexamethasone, reference compound]
[1]; Dex 1-1.5 mg/kg i.p. every two days, D1
  Body weight: 19.92 ± 1.38 g
[1]; Dex 1-1.5 mg/kg i.p. every two days, D7
  Body weight: 20.02 ± 0.96 g
[1]; Dex 1-1.5 mg/kg i.p. every two days, D14
  Body weight: 19.24 ± 0.95 g
[1]; Dex 1-1.5 mg/kg i.p. every two days, D21
  Body weight: 18.90 ± 0.78 g
[1]; Dex 1-1.5 mg/kg i.p. every two days, D28
  Body weight: 18.56 ± 0.71 g
[1]; Dex 1-1.5 mg/kg i.p. every two days, D35
  Body weight: 18.36 ± 0.66 g
[1]; [4]
  Body weight decreased by: 8.48%
[2]; [4]
  BEect: -8.50 ± 1.05 mmol/L
  HCO3^-: 27.82 ± 1.08 mmol/L
  PCO2: 33.60±1.92 mmHg
[3]; [4]
  IFN-γ in bronchoalveolar lavage fluid: 66.48 ± 4.88 pg/mL
  NF-κB in bronchoalveolar lavage fluid: 818.72 ± 119.21 pg/mL
  PPAR-γ in bronchoalveolar lavage fluid: 232.49 ± 39.00 pg/mL
  Percent reduction in IL-1β in bronchoalveolar lavage fluid with respect to the Model group: 23.21%
  Percent reduction in IL-2 in bronchoalveolar lavage fluid with respect to the Model group: 7.98%
  Percent reduction in IL-6 in bronchoalveolar lavage fluid with respect to the Model group: 55.36%
  Percent reduction in NF-κB in bronchoalveolar lavage fluid with respect to the Model group: 10.75%
  Percent reduction in TGF-β in bronchoalveolar lavage fluid with respect to the Model group: 15.87%
  Percent reduction in TNF-α in bronchoalveolar lavage fluid with respect to the Model group: 5.19%
  TGF-β in bronchoalveolar lavage fluid: 159.28 ± 11.09 pg/mL
  Percent reduction in IFN-γ in bronchoalveolar lavage fluid with respect to the Model group: -100.30%
  Percent reduction in PPAR-y in bronchoalveolar lavage fluid with respect to the Model group: -7.09%
  IL-1β in bronchoalveolar lavage fluid: 9.59 ± 0.90 pg/mL
  IL-2 in bronchoalveolar lavage fluid: 41.67 ± 4.69 pg/mL
  IL-6 in bronchoalveolar lavage fluid: 12.84 ± 1.02 pg/mL
  TNF-α in bronchoalveolar lavage fluid: 53.21 ± 0.90 pg/mL
